Measured values as given in ChEMBL document CHEMBL1938275, “Antibacterial activity of chalcones, hydrazones and oxadiazoles against methicillin-resistant Staphylococcus aureus” (Bioorg Med Chem Lett, 2012).
Values after ≈ are worked out from the molar mass of the structure shown.

Columns and labels:
[1] = tested on: Staphylococcus aureus; test: Antibacterial activity against methicillin-sensitive Staphylococcus aureus ATCC 25923 after 24 hrs by broth microdilution method; assay type: functional; conditions: ATCC 25923, 24 h
[2] = tested on: Staphylococcus aureus; test: Antibacterial activity against methicillin-resistant Staphylococcus aureus isolate 10 after 24 hrs by broth microdilution method; assay type: functional; conditions: isolate 10, 24 h
[3] = tested on: Staphylococcus aureus; test: Antibacterial activity against methicillin-resistant Staphylococcus aureus isolate 9 after 24 hrs by broth microdilution method; assay type: functional; conditions: isolate 9, 24 h
[4] = tested on: Staphylococcus aureus; test: Antibacterial activity against methicillin-resistant Staphylococcus aureus isolate 12 after 24 hrs by broth microdilution method; assay type: functional; conditions: isolate 12, 24 h
[5] = tested on: Staphylococcus aureus; test: Antibacterial activity against methicillin-resistant Staphylococcus aureus isolate 5 after 24 hrs by broth microdilution method; assay type: functional; conditions: isolate 5, 24 h
[6] = Cytotoxicity against african green monkey Vero cells assessed as cell death after 72 hrs by MTT assay; assay type: cell-based; conditions: chlorocebus sabaeus
[7] = tested on: Staphylococcus aureus; test: Antibacterial activity against methicillin-resistant Staphylococcus aureus isolate 14 after 24 hrs by broth microdilution method; assay type: functional; conditions: isolate 14, 24 h
[8] = tested on: Vero; test: Cytotoxicity against African green monkey Vero cells assessed as inhibition of cell growth after 72 hrs by MTT assay; assay type: cell-based; conditions: Chlorocebus sabaeus
[9] = tested on: Staphylococcus aureus; test: Selectivity index, Ratio of CC50 for african green monkey Vero cells to IC50 for Staphylococcus aureus
[10] = tested on: Staphylococcus aureus; test: Antibacterial activity against methicillin-resistant Staphylococcus aureus isolate 13 after 24 hrs by broth microdilution method; assay type: functional; conditions: isolate 13, 24 h
[11] = tested on: Staphylococcus aureus; test: Antibacterial activity against methicillin-resistant Staphylococcus aureus isolate 3 after 24 hrs by broth microdilution method; assay type: functional; conditions: isolate 3, 24 h
[12] = tested on: Staphylococcus aureus; test: Antibacterial activity against methicillin-resistant Staphylococcus aureus isolate 8 after 24 hrs by broth microdilution method; assay type: functional; conditions: isolate 8, 24 h
[13] = tested on: Staphylococcus aureus; test: Antibacterial activity against methicillin-resistant Staphylococcus aureus isolate 7 after 24 hrs by broth microdilution method; assay type: functional; conditions: isolate 7, 24 h
[14] = tested on: Staphylococcus aureus; test: Antibacterial activity against methicillin-resistant Staphylococcus aureus isolate 4 after 24 hrs by broth microdilution method; assay type: functional; conditions: isolate 4, 24 h
[15] = tested on: Staphylococcus aureus; test: Antibacterial activity against methicillin-resistant Staphylococcus aureus isolate 2 after 24 hrs by broth microdilution method; assay type: functional; conditions: isolate 2, 24 h
[16] = tested on: Staphylococcus aureus; test: Antibacterial activity against methicillin-resistant Staphylococcus aureus isolate 11 after 24 hrs by broth microdilution method; assay type: functional; conditions: isolate 11, 24 h
[17] = tested on: Staphylococcus aureus; test: Antibacterial activity against methicillin-resistant Staphylococcus aureus isolate 6 after 24 hrs by broth microdilution method; assay type: functional; conditions: isolate 6, 24 h
[18] = tested on: Staphylococcus aureus; test: Antibacterial activity against methicillin-resistant Staphylococcus aureus isolate 1 after 24 hrs by broth microdilution method; assay type: functional; conditions: isolate 1, 24 h
[19] = tested on: Staphylococcus aureus; test: Antibacterial activity against methicillin-resistant Staphylococcus aureus isolate 4 at 30 ug after 24 hrs by disk diffusion assay; assay type: functional; conditions: isolate 4, 24 h, read-out: DIZ
[20] = tested on: Staphylococcus aureus; test: Antibacterial activity against methicillin-resistant Staphylococcus aureus isolate 5 at 30 ug after 24 hrs by disk diffusion assay; assay type: functional; conditions: isolate 5, 24 h, read-out: DIZ

SMILES	MIC [1] [µg/mL]	MIC [2] [µg/mL]	MIC [3] [µg/mL]	MIC [4] [µg/mL]	MIC [5] [µg/mL]	CC50 at 72 h [6] [µg/mL]	MIC [7] [µg/mL]	IC50 [8] [µg/mL]	Ratio CC50/IC50 [9]	MIC [10] [µg/mL]	MIC [11] [µg/mL]	MIC [12] [µg/mL]	MIC [13] [µg/mL]	MIC [14] [µg/mL]	MIC [15] [µg/mL]	MIC [16] [µg/mL]	MIC [17] [µg/mL]	MIC [18] [µg/mL]	zone of inhibition at 30 µg/disc [19] [mm]	zone of inhibition at 30 µg/disc [20] [mm]
CC(C)=CCC/C(C)=C/Cc1c(O)ccc(C(=O)/C=C/c2ccc(O)c(CC=C(C)C)c2)c1O	31.2 (≈ 67.7 µM)																			
CC(C)=CCc1c(O)ccc(C(=O)/C=C/c2ccc(O)cc2)c1O [ISOBAVACHALCONE]	31.2 (≈ 96.3 µM)	125 (≈ 385 µM)	62.5 (≈ 193 µM)	62.5 (≈ 193 µM)	62.5 (≈ 193 µM)	727 (≈ 2240 µM)	62.5 (≈ 193 µM)	31.2 (≈ 96.3 µM)	23.25	125 (≈ 385 µM)	62.5 (≈ 193 µM)	125 (≈ 385 µM)	125 (≈ 385 µM)	15.6 (≈ 48.2 µM)	62.5 (≈ 193 µM)	62.5 (≈ 193 µM)	62.5 (≈ 193 µM)	62.5 (≈ 193 µM)		
CO[C@@]1(NC(=O)Cc2cccs2)C(=O)N2C(C(=O)O)=C(COC(N)=O)CS[C@@H]21 [CEFOXITIN]																			22	33
COc1ccc(C(=O)/C=C/c2ccc(O)cc2)c(O)c1CC=C(C)C		≥ 1000	≥ 1000	≥ 1000	≥ 1000		≥ 1000			≥ 1000	≥ 1000	≥ 1000	≥ 1000	≥ 1000	≥ 1000	≥ 1000	≥ 1000	≥ 1000		
COc1cc(C(=O)N/N=C/c2ccc([N+](=O)[O-])s2)cc(OC)c1OC	15.6 (≈ 42.8 µM)	125 (≈ 342 µM)	125 (≈ 342 µM)	125 (≈ 342 µM)	125 (≈ 342 µM)	857 (≈ 2340 µM)	125 (≈ 342 µM)	7.81 (≈ 21.4 µM)	109.7	125 (≈ 342 µM)	125 (≈ 342 µM)	125 (≈ 342 µM)	125 (≈ 342 µM)	15.6 (≈ 42.8 µM)	125 (≈ 342 µM)	125 (≈ 342 µM)	125 (≈ 342 µM)	125 (≈ 342 µM)		
O=C(CCc1ccc(O)cc1)c1c(O)cc(O)cc1O [PHLORETIN]	250 (≈ 912 µM)	250 (≈ 912 µM)	250 (≈ 912 µM)	250 (≈ 912 µM)	250 (≈ 912 µM)	735 (≈ 2680 µM)	250 (≈ 912 µM)	125 (≈ 456 µM)	5.9	250 (≈ 912 µM)	250 (≈ 912 µM)	250 (≈ 912 µM)	250 (≈ 912 µM)	250 (≈ 912 µM)	250 (≈ 912 µM)	250 (≈ 912 µM)	250 (≈ 912 µM)	250 (≈ 912 µM)		
O=C(N/N=C/c1ccc([N+](=O)[O-])o1)c1ccccc1	62.5 (≈ 241 µM)	15.6 (≈ 60.3 µM)	125 (≈ 482 µM)	62.5 (≈ 241 µM)	62.5 (≈ 241 µM)	489 (≈ 1890 µM)	62.5 (≈ 241 µM)	7.81 (≈ 30.1 µM)	62.6	62.5 (≈ 241 µM)	62.5 (≈ 241 µM)	125 (≈ 482 µM)	125 (≈ 482 µM)	15.6 (≈ 60.3 µM)	62.5 (≈ 241 µM)	125 (≈ 482 µM)	62.5 (≈ 241 µM)	125 (≈ 482 µM)		
CN[C@H](CC(C)C)C(=O)N[C@H]1C(=O)N[C@@H](CC(N)=O)C(=O)N[C@H]2C(=O)N[C@H]3C(=O)N[C@H](C(=O)N[C@H](C(=O)O)c4cc(O)cc(O)c4-c4cc3ccc4O)[C@H](O)c3ccc(c(Cl)c3)Oc3cc2cc(c3O[C@@H]2O[C@H](CO)[C@@H](O)[C@H](O)[C@H]2O[C@H]2C[C@](C)(N)[C@H](O)[C@H](C)O2)Oc2ccc(cc2Cl)[C@H]1O [VANCOMYCIN]	0.2 (≈ 0.138 µM)	0.8 (≈ 0.552 µM)	0.8 (≈ 0.552 µM)	0.8 (≈ 0.552 µM)	0.4 (≈ 0.276 µM)		0.8 (≈ 0.552 µM)			0.8 (≈ 0.552 µM)	0.8 (≈ 0.552 µM)	0.8 (≈ 0.552 µM)	0.8 (≈ 0.552 µM)	0.8 (≈ 0.552 µM)	0.8 (≈ 0.552 µM)	0.8 (≈ 0.552 µM)	0.4 (≈ 0.276 µM)	0.8 (≈ 0.552 µM)		
O=C(/C=C/c1ccc(O)cc1)c1ccc(O)cc1O [ISOLIQUIRITIGENIN]	31.2 (≈ 122 µM)	62.5 (≈ 244 µM)	62.5 (≈ 244 µM)	62.5 (≈ 244 µM)	62.5 (≈ 244 µM)	464 (≈ 1810 µM)	62.5 (≈ 244 µM)	31.2 (≈ 122 µM)	14.8	62.5 (≈ 244 µM)	62.5 (≈ 244 µM)	62.5 (≈ 244 µM)	62.5 (≈ 244 µM)	62.5 (≈ 244 µM)	62.5 (≈ 244 µM)	62.5 (≈ 244 µM)	62.5 (≈ 244 µM)	62.5 (≈ 244 µM)		
O=C(CCc1ccccc1O)c1ccccc1	500 (≈ 2210 µM)	≥ 1000	≥ 1000	≥ 1000	≥ 1000		≥ 1000			≥ 1000	≥ 1000	≥ 1000	≥ 1000	≥ 1000	≥ 1000	≥ 1000	≥ 1000	≥ 1000		
